Measured values reported in EP0559845B1, “Use of compounds in preventing endotoxin shock” (priority 1991, dated 1992).

Tested on: GTPase activity in membranes isolated from a macrophage (RAW 264.7) cell line
Assay: GTPase assay, basal activity and single agonists
Type: biochemical
Excerpt: We sought to directly evaluate the influence of LPS on possible G-protein function by examining agonist-enhanced GTPase activity, which is a hallmark of G-protein action. Moreover, because macrophages are one of the key cell types in the release of toxic mediators following an LPS challenge, we first assessed the capacity of LPS to influence GTPase activity in membranes isolated from RAW 264.7 cells, which is a highly LPS-responsive macrophage cell line. In these studies, GTPase activity was measured using a standard assay. The activity was determined using 2 µM γ-^32P-GTP in the presence of 0.1 mM ATP and 0.2 mM of the non-hydrolyzable ATP analog, AMPPNP, in order to minimize nonspecific nucleotidase activity in the membrane preparations. In the preferred practice of the present invention, the ability of a candidate compound to inhibit LPS-induced GTPase is assessed by measuring the release of ^32Pi from γ-^32P-GTP.
We first determined the optimal LPS concentration for GTPase stimulation. In all experiments, the LPS dose response curve was quite steep, and with the highest activity occurring around 200-300 µg LPS/ml.
Under these conditions, GTPase activation was evident at 100 µg LPS/ml (roughly 6 µM assuming an average MW ∼ 17,000 kDa), and the maximal effect was seen by 300 µg/ml LPS. (2) To show adenosine mucleotide synergism with LPS-stimulated GTPase activity, either 10µM ATP or 30µM ADP replace the 0.1 mM ATP and 0.2 mM AMPPNP of the standard assay described by Cassel et al. and Neer et al.
Because the above inhibitor studies indicated a maximum LPS-stimulated GTPase activity in the presence of ATP and ATP analogs, we investigated this interaction by measuring the ATP-dependence of the GTPase activity in macrophage membranes in the presence and absence of an optimal dose of LPS. […] This stimulation by ATP may be due to the action of purinergic receptors, i.e., the adenosine and ATP receptors which are well-characterized to be coupled to various G-proteins.
To assess whether the LPS/ATP-enhanced GTPase is a "low Km" form, which would be expected for a variety of large and small MW G-proteins, as well as for various GAP and ARF-like proteins, as opposed to a "high Km" form, such as a phosphatase, we assayed the GTPase activity using 0.2 and 50 µM GTP essentially as described previously. […] The LPS and ATP stimulated a low Km GTPase activity by ∼30% and 70%, respectively, when added individually. This stimulation of low Km activity was slightly greater than that estimated using the standard assay conditions. […] The LPS stimulation of GTPase activity is enhanced by adenine nucleotides.

## CCCCCCCCCCC[C@@H](O)CC(=O)N[C@H]1[C@@H](OP(=O)(O)O)O[C@H](CO)[C@@H](O)[C@@H]1OC(=O)C[C@H](O)CCCCCCCCCCC [lipid X]
  effect on basal GTPase activity: slightly reducing
